Measured values reported in US9238056B2, “Cyclic peptide and conjugate thereof for binding to keratinocytes” (LEO PHARMA A/S, priority 2011, dated 2016).
Bridge positions count the residues as written; N and C are the ends. Ends that are not written are not given here. * marks the point of attachment. Acetylthioacetyl = CC(=O)SCC(=O)*

Tests used:
HaCat cells = conditions: cited from earlier work
[1] = test system: Adult human epidermal keratinocytes (HEKa); experiment: Cathelicidin (CAMP) expression by qPCR in keratinocytes incubated with calcipotriol-loaded liposomes; format: cell-based; conditions: 10^−7 M calcipotriol, 1 h at 37° C. then 24 h, versus placebo RKK12-conjugated liposomes, FIG. 6
Description: Adult human epidermal keratinocytes (HEKa) were obtained from Cascade Biologics (Portland, Oreg., USA) and cultured in EpiLife Medium (Cascade Biologics) containing human keratinocyte growth supplement and gentamicin/Amphotericin B (Cascade Biologics) at 37° C. in a humidified atmosphere with 5% CO2. For the cell interaction assay, 2×10^5 exponentially growing keratinocytes were seeded one day prior to treatment. On the following day (at 80% confluency), the medium was renewed, and the cell culture media was supplied with 15 μl of liposome suspension for a final concentration of 10^−7 M calcipotriol in the well, 15 μl placebo liposomal suspension, or calcipotriol in 0.1% DMSO solution for a final concentration of 10^−7 M and incubated 1 h at 37° C. The liposomes were conjugated with either the RKK12-peptide or the AKK12-peptide. After 1 h, the cells were washed three times with PBS supplemented with 1% BSA, and 1.5 ml media was added followed by incubation for 24 h at 37° C. Subsequently, the medium was removed, and mRNA was extracted using the RNeasy kit from Quiagen (Hilden, Germany). […] The relative change in the expression of CAMP was quantified using the comparative CT method (2^−ΔΔCt)(K. J. Livak and T. D. Schmittgen, Methods 25, 2001, pp. 402-408).

integrin α2β1 receptor = target: T1, integrin α2β1 receptor (Homo sapiens, UniProt P17301); conditions: cyclic peptide: in the presence of 2 mM MgCl2; cited from earlier work
T1 sequence (P17301 153-368 limits assumed): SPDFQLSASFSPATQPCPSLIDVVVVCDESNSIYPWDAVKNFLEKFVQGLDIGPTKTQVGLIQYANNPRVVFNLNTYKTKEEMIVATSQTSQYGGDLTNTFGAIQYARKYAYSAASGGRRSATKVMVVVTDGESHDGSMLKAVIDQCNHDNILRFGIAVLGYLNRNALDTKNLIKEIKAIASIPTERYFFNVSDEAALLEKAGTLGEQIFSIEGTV

A431 cells [2] = experiment: Cellular internalization of DiD-labeled peptide-conjugated liposomes at 37° C. (flow cytometry); format: cell-based, human; conditions: 1 hour at 37° C., FIG. 4
Description: (§1) Human epidermal carcinoma cells A431 were subcultured in Dulbecco's modified Eagle's medium (DMEM) containing 3.7 g/l sodium bicarbonate and 4.5 g/l glucose, supplemented with antimicrobial agents, 2 mM L-glutamine and 7.5% (v/v) fetal bovine serum, at 37° C. in a humidified atmosphere containing 5% CO2. Nearly confluent mono-layers of A431 cells were washed with PBS and cells were detached using 1 mM tris-EDTA in PBS. The cells were subsequently suspended in cold PBS supplemented with 1.26 mM CaCl2 and 0.81 mM MgSO4 at 4° C. The cells were counted after centrifugation and 10^5 cells in 100 μl media were incubated with 100 μl liposomes diluted in PBS supplemented with 1.26 mM CaCl and 0.81 mM MgSO4, different concentrations of DiD-labeled liposomes (10-200 nmol total lipid), RKK12-conjugated liposomes (RKK12-liposomes) or AKK12-coupled liposomes (AKK12-liposomes) for 1 h at 4° C.
(§2) In the cellular internalization of liposomes experiment, similar different concentrations of DiD-labeled liposomes (10-200 nmol total lipid) RKK12-liposomes were incubated for 1 hour at 37° C. […] At the end of the incubation period, cells were washed three times in the 5% BSA supplemented PBS-buffer at 4° C., and resuspended in 200 μl PBS supplied with 5% BSA after which they were analyzed on a FACScalibur flow cytometer (Becton-Dickinson). […]

A431 cells [3] = experiment: Binding of DiD-labeled peptide-conjugated liposomes to A431 cells at 4° C. (flow cytometry); format: cell-based, human
Description: as §1, §2

[4] = target: T2, integrin α2β1 receptor on the surface of A431 human epidermal carcinoma cells (human, UniProt P17301 30-1181; P05556 21-798); experiment: flow cytometry, DiD-labeled peptide-conjugated liposomes on A431 cells at 4° C.
T2 construct: whole, on cells; Endogenous receptor on A431 cells; also called human integrin α2β1 receptor
T2 sequence (P17301 30-1181, chain 1 of 2): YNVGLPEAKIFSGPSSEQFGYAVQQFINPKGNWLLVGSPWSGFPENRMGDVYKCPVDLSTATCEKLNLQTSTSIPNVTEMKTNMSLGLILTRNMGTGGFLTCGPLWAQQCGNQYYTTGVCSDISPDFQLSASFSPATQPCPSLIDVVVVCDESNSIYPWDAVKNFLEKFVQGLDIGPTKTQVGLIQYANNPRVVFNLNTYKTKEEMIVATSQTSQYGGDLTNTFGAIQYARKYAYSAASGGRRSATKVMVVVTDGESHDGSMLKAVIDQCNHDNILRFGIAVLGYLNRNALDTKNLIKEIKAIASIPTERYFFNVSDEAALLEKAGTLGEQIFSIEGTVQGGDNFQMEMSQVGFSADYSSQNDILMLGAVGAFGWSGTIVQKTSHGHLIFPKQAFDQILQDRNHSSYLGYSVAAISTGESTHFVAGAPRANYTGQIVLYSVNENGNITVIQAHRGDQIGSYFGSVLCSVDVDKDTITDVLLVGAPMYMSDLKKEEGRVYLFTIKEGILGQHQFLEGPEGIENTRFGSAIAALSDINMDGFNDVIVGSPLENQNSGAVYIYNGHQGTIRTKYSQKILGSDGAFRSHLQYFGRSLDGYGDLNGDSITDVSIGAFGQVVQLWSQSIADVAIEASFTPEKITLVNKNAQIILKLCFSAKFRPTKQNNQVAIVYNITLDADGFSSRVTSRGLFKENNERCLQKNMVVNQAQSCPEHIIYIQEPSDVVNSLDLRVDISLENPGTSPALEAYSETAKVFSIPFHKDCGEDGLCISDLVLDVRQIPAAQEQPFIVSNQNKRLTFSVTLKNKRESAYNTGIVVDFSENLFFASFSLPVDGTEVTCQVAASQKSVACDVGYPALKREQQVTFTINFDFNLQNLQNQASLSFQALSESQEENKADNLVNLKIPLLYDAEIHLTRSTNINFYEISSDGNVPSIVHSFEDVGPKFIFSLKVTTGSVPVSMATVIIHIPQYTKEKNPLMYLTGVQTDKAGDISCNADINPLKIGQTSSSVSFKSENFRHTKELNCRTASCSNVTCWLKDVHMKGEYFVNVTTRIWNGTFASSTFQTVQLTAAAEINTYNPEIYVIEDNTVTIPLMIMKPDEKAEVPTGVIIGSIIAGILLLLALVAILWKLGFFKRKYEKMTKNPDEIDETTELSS
T2 sequence (P05556 21-798, chain 2 of 2): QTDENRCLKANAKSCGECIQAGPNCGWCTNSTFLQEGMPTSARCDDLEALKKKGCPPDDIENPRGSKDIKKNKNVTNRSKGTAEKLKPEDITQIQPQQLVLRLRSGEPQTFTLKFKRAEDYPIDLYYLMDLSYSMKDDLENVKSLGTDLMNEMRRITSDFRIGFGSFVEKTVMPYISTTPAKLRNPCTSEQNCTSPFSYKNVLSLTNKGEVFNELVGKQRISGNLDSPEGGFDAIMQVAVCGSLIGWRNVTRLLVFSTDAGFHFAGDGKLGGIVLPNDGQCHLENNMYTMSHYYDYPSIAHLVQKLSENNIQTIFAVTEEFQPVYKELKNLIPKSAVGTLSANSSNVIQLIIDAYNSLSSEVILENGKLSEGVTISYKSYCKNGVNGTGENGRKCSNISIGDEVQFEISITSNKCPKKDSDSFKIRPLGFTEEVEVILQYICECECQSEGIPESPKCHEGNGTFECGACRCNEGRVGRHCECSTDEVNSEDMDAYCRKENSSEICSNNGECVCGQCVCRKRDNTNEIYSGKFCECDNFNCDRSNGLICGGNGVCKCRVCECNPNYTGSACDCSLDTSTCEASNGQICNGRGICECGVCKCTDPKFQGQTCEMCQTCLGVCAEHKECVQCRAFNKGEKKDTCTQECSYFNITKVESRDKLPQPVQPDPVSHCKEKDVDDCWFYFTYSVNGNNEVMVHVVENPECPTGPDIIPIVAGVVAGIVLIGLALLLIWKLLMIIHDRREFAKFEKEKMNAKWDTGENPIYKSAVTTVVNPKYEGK

In the case of C=C1/C(=C\C=C2/CCC[C@]3(C)[C@@H]([C@H](C)/C=C/[C@@H](O)C4CC4)CC[C@@H]23)C[C@@H](O)C[C@@H]1O [calcipotriol], the levels of cathelicidin (HaCat cells) is listed as “Increased levels”.

With “AKK12-conjugated liposomes: calcipotriol-loaded liposomes conjugated with the control peptide AKK12 (cyclo(KHDNRQSK(Acetylthioacetyl)STAK); not fully specified)” the “expression of cathelicidin (CAMP) normalized to GAPDH” value [1] was “no significant difference between the formulations”.

In the case of “C^241TRKKHDNAQ^249C: nine amino acid long cyclic peptide with RKK motif derived from jararhagin (Ivaska et al.) (CTRKKHDNAQC; disulfide 1-11)”, the “inhibition of collagen I interaction with the integrin α2β1 receptor” value (integrin α2β1 receptor) is listed as “inhibit the interaction”.

With “RKK12-liposomes: DiD-labeled liposomes (DSPC, PEG2000-DSPE, Mal-PEG2000-DSPE, cholesterol) conjugated with RKK12 peptide (cyclo(KHDNAQSK(Acetylthioacetyl)STRK); also: conjugated to DiD-labeled liposomes)” the “internalization (cellular uptake) of liposomes” value (A431 cells [2]) was “highest”, the “association of liposomes at low Mg2+ concentrations, versus AKK12-conjugated liposomes” value (A431 cells [3]; 4° C., PBS not supplied with CaCl2 or MgSO4, FIG. 5) was “only slightly higher” and the “fluorescence of cells (association of liposomes)” value (A431 cells [3]; 1 h at 4° C., PBS with 1.26 mM CaCl2 and 0.81 mM MgSO4, 10-200 nmol total lipid, FIG. 3) was “significantly more fluorescent”.

B1: RKK12 head-to-tail cyclized targeting peptide H-KHDNAQS-(SATA)KSTRK-OH, conjugated to DiD-labeled liposomes (peptide)
peptide: cyclo(KHDNAQSKSTRK)
modifications: not fully specified (residue 8)
notes: Synthetic cyclic peptide; tested only as a conjugate on the surface of DiD-labeled PEGylated liposomes, so many copies per particle; also called RKK12-peptide; RKK-12 peptide
B1: binds [4].

B2: AKK12 head-to-tail cyclized control peptide H-KHDNRQS-(SATA)KSTAK-OH, conjugated to DiD-labeled liposomes (peptide)
peptide: cyclo(KHDNRQSKSTAK)
modifications: not fully specified (residue 8)
notes: Control peptide with similar charge as RKK12 but without the RKK motif (Arg and Ala exchanged); tested only as a liposome conjugate; also called AKK12-peptide; AKK12-liposomes
B2: binds [4].
